Test results as given in US12065430B2, “Indazole compound or salt thereof” (TAIHO PHARMACEUTICAL CO., LTD., priority 2018, dated 2024).

Target: G12C K-Ras4B (1-169) (Homo sapiens (Human), UniProt P01116, G12C)
Test: Test of compounds on whether to bind to KRASG12C (LC-MS compound binding rate)
Conditions: final compound concentration of 2 μM, 1 μM protein, 25° C. for 2 hours
Method: Test compounds were prepared in the form of a 10 mM DMSO solution.
K-Ras4B (1-169) and G12C K-Ras4B (1-169) proteins were mixed and diluted with a buffer (1×TBS, 0.1 mM TCEP) to prepare individual 1 μM protein solutions. A 10 mM test compound was diluted tenfold with DMSO to make a 1 mM solution, and then diluted fivefold with DMSO to make a 200 μM solution. The 200 μM solution was further diluted fivefold to make a 40 μM solution. When the final compound concentration was 10 μM, 1 μL of a 200 μM test compound was added to 19 μL of a 1 μM protein solution. When the final compound concentration was 2 μM, 1 μL of a 40 μM test compound was added to 19 μL of a 1 μM protein solution. The mixtures were stored in an incubator at 25° C. for 2 hours, and 80 μL of a 1×TBS solution containing 0.2% formic acid was added thereto to end the reaction, followed by LC-MS measurement. LC-MS measurement was performed using Xevo G2-S Q-Tof manufactured by Waters, and reverse-phase chromatography was performed with a desalting column. A mass spectrum of positive ions was obtained by electrospray. For a mass spectrum, a spectrum of a polyvalent ion was collectively converted to a molecular weight by using OpenLynx software by the MaxEnt technique, and a compound binding rate was obtained from the ratio of a signal intensity that corresponds to the molecular weight of a protein to a signal intensity that corresponds to the molecular weight of a compound binding to the protein.
By obtaining the compound binding rate for K-Ras4B (1-169) and the compound binding rate for G12C K-Ras4B (1-169) at the same time, information of the selectivity for G12C K-Ras4B (1-169) was obtained at the same time.
The test compounds were measured at their final compound concentration of 2 μM. […] Almost no compounds of the present invention binded to K-Ras4B (1-169). The “binding rate” (%) for each of K-Ras4B (1-169) and G12C K-Ras4B (1-169) refers to the ratio of the signal intensity of binded forms to the sum of the signal intensity of non-binded forms and the signal intensity of binded forms.

Chain of G12C K-Ras4B (1-169) (P01116 other isoform, or with tags, fused parts or gaps G12C): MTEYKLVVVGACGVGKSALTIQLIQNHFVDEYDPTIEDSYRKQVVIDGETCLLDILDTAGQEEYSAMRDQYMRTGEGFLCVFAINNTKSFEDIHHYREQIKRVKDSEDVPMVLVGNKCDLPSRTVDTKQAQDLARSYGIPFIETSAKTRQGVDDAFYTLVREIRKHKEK

C=CC(=O)N1CC(NC(=O)c2c(C)nc(CNc3n[nH]c4cc(Cl)c(C(C)(C)C)cc34)n2CC(F)(F)F)C1 [Example 22, N-(1-acryloylazetidin-3-yl)-2-(((5-(tert-butyl)-6-chloro-1H-indazol-3-yl)amino)methyl)-4-methyl-1-(2,2,2-trifluoroethyl)-1H-imidazole-5-carboxamide]
binding rate for G12C K-Ras4B (1-169): B (a binding rate of 60% or more and less than 80% is rated “B,”)

C=CC(=O)N1CC(NC(=O)c2c(C)nc(CNc3n[nH]c4cc(Cl)c(C(C)(C)C)cc34)n2C2CC2)C1 [Example 23, N-(1-acryloylazetidin-3-yl)-2-(((5-(tert-butyl)-6-chloro-1H-indazol-3-yl)amino)methyl)-1-cyclopropyl-4-methyl-1H-imidazole-5-carboxamide]
binding rate for G12C K-Ras4B (1-169): A (a binding rate of 80% or more is rated “A,”)

C=CC(=O)N1CC(NC(=O)c2c(C)nc(CNc3n[nH]c4cc(Cl)c(C(C)(C)C)cc34)n2C(C)(C)C)C1 [Example 24, N-(1-acryloylazetidin-3-yl)-1-(tert-butyl)-2-(((5-(tert-butyl)-6-chloro-1H-indazol-3-yl)amino)methyl)-4-methyl-1H-imidazole-5-carboxamide]
binding rate for G12C K-Ras4B (1-169): C (a binding rate of 40% or more and less than 60% is rated “C,”)

C=CC(=O)N1CC(NC(=O)c2c(C(F)(F)F)nc(CNc3n[nH]c4cc(Cl)c(C(C)(C)C)cc34)n2C)C1 [Example 25, N-(1-acryloylazetidin-3-yl)-2-(((5-(tert-butyl)-6-chloro-1H-indazol-3-yl)amino)methyl)-1-methyl-4-(trifluoromethyl)-1H-imidazole-5-carboxamide]
binding rate for G12C K-Ras4B (1-169): A (a binding rate of 80% or more is rated “A,”)

C=CC(=O)N1CC(NC(=O)c2c(I)nc(CNc3n[nH]c4cc(Cl)c(C(C)(C)C)cc34)n2C)C1 [Example 26, N-(1-acryloylazetidin-3-yl)-2-(((5-(tert-butyl)-6-chloro-1H-indazol-3-yl)amino)methyl)-4-iodo-1-methyl-1H-imidazole-5-carboxamide]
binding rate for G12C K-Ras4B (1-169): A (a binding rate of 80% or more is rated “A,”)

C=CC(=O)N1CC(NC(=O)c2c(Br)nc(CNc3n[nH]c4cc(Cl)c(C(C)(C)C)cc34)n2C)C1 [Example 27, N-(1-acryloylazetidin-3-yl)-4-bromo-2-(((5-(tert-butyl)-6-chloro-1H-indazol-3-yl)amino)methyl)-1-methyl-1H-imidazole-5-carboxamide]
binding rate for G12C K-Ras4B (1-169): A (a binding rate of 80% or more is rated “A,”)

C=CC(=O)N1CC(NC(=O)c2c(C#N)nc(CNc3n[nH]c4cc(Cl)c(C(C)(C)C)cc34)n2C)C1 [Example 28, N-(1-acryloylazetidin-3-yl)-2-(((5-(tert-butyl)-6-chloro-1H-indazol-3-yl)amino)methyl)-4-cyano-1-methyl-1H-imidazole-5-carboxamide]
binding rate for G12C K-Ras4B (1-169): B (a binding rate of 60% or more and less than 80% is rated “B,”)

C=CC(=O)N1CC(NC(=O)c2c(F)nc(CNc3n[nH]c4cc(Cl)c(C(C)(C)C)cc34)n2C)C1 [Example 30, N-(1-acryloylazetidin-3-yl)-2-(((5-(tert-butyl)-6-chloro-1H-indazol-3-yl)amino)methyl)-4-fluoro-1-methyl-1H-imidazole-5-carboxamide]
binding rate for G12C K-Ras4B (1-169): C (a binding rate of 40% or more and less than 60% is rated “C,”)

C=CC(=O)N1CC(NC(=O)c2c(CC)nc(CNc3n[nH]c4cc(Cl)c(C(C)(C)C)cc34)n2C)C1 [Example 31, N-(1-acryloylazetidin-3-yl)-2-(((5-(tert-butyl)-6-chloro-1H-indazol-3-yl)amino)methyl)-4-ethyl-1-methyl-1H-imidazole-5-carboxamide]
binding rate for G12C K-Ras4B (1-169): D (a binding rate of 20% or more and less than 40% is rated “D,”)

C=CC(=O)N1CC(NC(=O)c2c(C(F)(F)F)nc(CNc3n[nH]c4cc(Cl)c(C(C)(C)C)cc34)n2C(C)C)C1 [Example 32, N-(1-acryloylazetidin-3-yl)-2-(((5-(tert-butyl)-6-chloro-1H-indazol-3-yl)amino)methyl)-1-isopropyl-4-(trifluoromethyl)-1H-imidazole-5-carboxamide]
binding rate for G12C K-Ras4B (1-169): B (a binding rate of 60% or more and less than 80% is rated “B,”)

C=CC(=O)N1CC(NC(=O)c2c(F)nc(CNc3n[nH]c4cc(Cl)c(C(C)(C)C)cc34)n2C(C)C)C1 [Example 34, N-(1-acryloylazetidin-3-yl)-2-(((5-(tert-butyl)-6-chloro-1H-indazol-3-yl)amino)methyl)-4-fluoro-1-isopropyl-1H-imidazole-5-carboxamide]
binding rate for G12C K-Ras4B (1-169): A (a binding rate of 80% or more is rated “A,”)

[2H]C([2H])(Nc1n[nH]c2cc(Cl)c(C(C)(C)C)cc12)c1nc(C(F)F)c(C(=O)NC2CN(C(=O)C=C)C2)n1C(C)C [Example 36, N-(1-acryloylazetidin-3-yl)-2-(((5-(tert-butyl)-6-chloro-1H-indazol-3-yl)amino)methyl-d2)-4-(difluoromethyl)-1-isopropyl-1H-imidazole-5-carboxamide]
binding rate for G12C K-Ras4B (1-169): B (a binding rate of 60% or more and less than 80% is rated “B,”)

C=CC(=O)N1CC(NC(=O)c2cnc(CNc3n[nH]c4cc(Cl)c(C)cc34)n2C)C1 [Example 37, N-(1-acryloylazetidin-3-yl)-2-(((6-chloro-5-methyl-1H-indazol-3-yl)amino)methyl)-1-methyl-1H-imidazole-5-carboxamide]
binding rate for G12C K-Ras4B (1-169): C (a binding rate of 40% or more and less than 60% is rated “C,”)

C=CC(=O)N1CC(NC(=O)c2cnc(CNc3n[nH]c4cc(Cl)c(C=C)cc34)n2C)C1 [Example 38, N-(1-acryloylazetidin-3-yl)-2-(((6-chloro-5-vinyl 1H-indazol-3-yl)amino)methyl)-1-methyl-1H-imidazole-5-carboxamide]
binding rate for G12C K-Ras4B (1-169): C (a binding rate of 40% or more and less than 60% is rated “C,”)

C=CC(=O)N1CC(NC(=O)c2cnc(CNc3n[nH]c4cc(Cl)c(CC)cc34)n2C)C1 [Example 39, N-(1-acryloylazetidin-3-yl)-2-(((6-chloro-5-ethyl-1H-indazol-3-yl)amino)methyl)-1-methyl-1H-imidazole-5-carboxamide]
binding rate for G12C K-Ras4B (1-169): C (a binding rate of 40% or more and less than 60% is rated “C,”)

C=CC(=O)N1CC(NC(=O)c2cnc(CNc3n[nH]c4cc(Cl)c(C(C)(C)C)nc34)n2C)C1 [Example 40, N-(1-acryloylazetidin-3-yl)-2-(((5-(tert-butyl)-6-chloro-1H-pyrazolo[4,3-b]pyridin-3-yl)amino)methyl)-1-methyl-1H-imidazole-5-carboxamide]
binding rate for G12C K-Ras4B (1-169): A (a binding rate of 80% or more is rated “A,”)

C=CC(=O)N1CC(NC(=O)c2c(C)nc(CNc3n[nH]c4cc(C)c(C(C)(C)C)cc34)n2C)C1 [Example 41, N-(1-acryloylazetidin-3-yl)-2-(((5-(tert-butyl)-6-methyl-1H-indazol-3-yl)amino)methyl)-1,4-dimethyl-1H-imidazole-5-carboxamide]
binding rate for G12C K-Ras4B (1-169): A (a binding rate of 80% or more is rated “A,”)

C=CC(=O)N1CC(NC(=O)c2c(C)nc(CNc3n[nH]c4ccc(C(C)(C)C)cc34)n2C(C)C)C1 [Example 42, N-(1-acryloylazetidin-3-yl)-2-(((5-(tert-butyl)-1H-indazol-3-yl)amino)methyl)-1-isopropyl-4-methyl-1H-imidazole-5-carboxamide]
binding rate for G12C K-Ras4B (1-169): B (a binding rate of 60% or more and less than 80% is rated “B,”)
